Measurements reported in PubChem BioAssay (NCI).
Values joined by “and” are separate entries in the source; they are usually repeats but may differ in a detail not shown here. Equal entries are not always repeated.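 All cell lines were grown in 96-well plates and treated with compound for 48 hours. At the GI50, growth is halved. The concentration for full growth arrest is given as TGI.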

Assays:
Assay in all cases: NCI tumour cell line growth inhibition, 48 h
MOLT-4 leukemia = system: MOLT-4 leukemia
NCI-H226 lung = system: NCI-H226 lung
NCI-H23 lung = system: NCI-H23 lung
NCI-H460 lung = system: NCI-H460 lung
NCI/ADR-RES ovarian = system: NCI/ADR-RES ovarian
OVCAR-3 ovarian = system: OVCAR-3 ovarian
OVCAR-4 ovarian = system: OVCAR-4 ovarian
OVCAR-5 ovarian = system: OVCAR-5 ovarian
OVCAR-8 ovarian = system: OVCAR-8 ovarian
P388 leukemia = system: P388 leukemia
P388/ADR leukemia = system: P388/ADR leukemia
PC-3 prostate = system: PC-3 prostate
RPMI-8226 leukemia = system: RPMI-8226 leukemia
RXF 393 renal = system: RXF 393 renal
RXF-631 renal = system: RXF-631 renal
SF-295 CNS = system: SF-295 CNS
SF-539 CNS = system: SF-539 CNS
SK-MEL-2 melanoma = system: SK-MEL-2 melanoma
SK-MEL-28 melanoma = system: SK-MEL-28 melanoma
SK-MEL-5 melanoma = system: SK-MEL-5 melanoma
SK-OV-3 ovarian = system: SK-OV-3 ovarian
SN12C renal = system: SN12C renal
SN12K1 renal = system: SN12K1 renal
SNB-19 CNS = system: SNB-19 CNS
SNB-75 CNS = system: SNB-75 CNS
SNB-78 CNS = system: SNB-78 CNS
SW-620 colon = system: SW-620 colon
T-47D breast = system: T-47D breast
TK-10 renal = system: TK-10 renal
U251 CNS = system: U251 CNS
UACC-257 melanoma = system: UACC-257 melanoma
UACC-62 melanoma = system: UACC-62 melanoma
UO-31 renal = system: UO-31 renal
XF 498 CNS = system: XF 498 CNS

CC[C@](O)(C(=O)O)c1cc2n(c(=O)c1CO)Cc1cc3ccccc3nc1-2
GI50 (MOLT-4 leukemia): < 2.5 nM
TGI (NCI-H226 lung): 866 nM and 332 nM and 1620 nM
GI50 (NCI-H23 lung): 5.8 nM and 21.5 nM
GI50 (NCI-H460 lung): < 2.5 nM
TGI (NCI-H460 lung): 23.4 nM and 125 nM and 34.5 nM
GI50 (NCI/ADR-RES ovarian): 6.61 nM and 12 nM
TGI (NCI/ADR-RES ovarian): 224 nM and 121 nM and 88.9 nM
GI50 (OVCAR-3 ovarian): 77.5 nM and 268 nM and 96.5 nM
TGI (OVCAR-3 ovarian): 323 nM and 1180 nM and 866 nM
GI50 (OVCAR-4 ovarian): 305 nM and 71.5 nM
TGI (OVCAR-4 ovarian): 7500 nM and 856 nM
GI50 (OVCAR-5 ovarian): 69.1 nM and 104 nM
TGI (OVCAR-5 ovarian): 784 nM and 501 nM
GI50 (OVCAR-8 ovarian): 29.2 nM and 26.2 nM and 35.3 nM
TGI (P388 leukemia): 294 nM
TGI (P388/ADR leukemia): 25600 nM
GI50 (PC-3 prostate): 113 nM
TGI (PC-3 prostate): 5170 nM
GI50 (RPMI-8226 leukemia): 6.77 nM and 45.8 nM
GI50 (RXF 393 renal): 27.8 nM and < 22.5 nM
TGI (RXF 393 renal): 1100 nM and 476 nM and 150 nM
TGI (RXF-631 renal): 1040 nM
GI50 (SF-295 CNS): 2.9 nM and < 13.4 nM
TGI (SF-295 CNS): 101 nM and 95.6 nM and 107 nM
GI50 (SF-539 CNS): < 2.5 nM
GI50 (SK-MEL-2 melanoma): 314 nM and 390 nM
TGI (SK-MEL-2 melanoma): 1700 nM and 1460 nM and 699 nM
GI50 (SK-MEL-28 melanoma): 147 nM and 169 nM and 49.3 nM
TGI (SK-MEL-5 melanoma): 38.3 nM and 156 nM and 89.6 nM
GI50 (SK-OV-3 ovarian): 28.3 nM and 17.6 nM
GI50 (SN12C renal): 3.65 nM and < 19.3 nM
TGI (SN12C renal): 822 nM and 121 nM
TGI (SN12K1 renal): 2730 nM
GI50 (SNB-19 CNS): 3.37 nM and 20 nM
GI50 (SNB-75 CNS): 3.91 nM and 16 nM
TGI (SNB-75 CNS): 201 nM and 71.4 nM and 343 nM
GI50 (SNB-78 CNS): 242 nM and 135 nM
GI50 (SW-620 colon): 94.8 nM and 71.3 nM and 25 nM
TGI (SW-620 colon): 25000 nM and 34100 nM
GI50 (T-47D breast): < 2.5 nM
TGI (T-47D breast): 75.5 nM
GI50 (TK-10 renal): 1100 nM
TGI (TK-10 renal): 4380 nM and > 24800 nM
GI50 (U251 CNS): < 2.5 nM and 10.7 nM
TGI (U251 CNS): 38.6 nM and 164 nM and 61.5 nM
GI50 (UACC-257 melanoma): 23.6 nM and 37.4 nM and 87.3 nM
TGI (UACC-257 melanoma): 278 nM and 953 nM and 582 nM
GI50 (UACC-62 melanoma): 3.48 nM
TGI (UACC-62 melanoma): 121 nM and 42.2 nM and 55.5 nM
GI50 (UO-31 renal): 18.9 nM
TGI (UO-31 renal): 161 nM and 167 nM
GI50 (XF 498 CNS): 614 nM
TGI (XF 498 CNS): 4410 nM and 793 nM
